# According to US20230365546A1, “5-SUBSTITUTED INDOLE 3-AMIDE DERIVATIVES, PREPARATION METHOD AND USE THEREOF” (ORIGIANT PHARMACEUTICAL CO., LTD, priority 2020, published 2023):
# Columns and labels:
# PKD3(h) = PKD3(h) (Homo sapiens (Human), UniProt O94806); assay: Kinase Profiler 10 μM panel
# Description: (§1) In vitro kinase assays were conducted using Kinase Profiler services provided by Eurofins. The experimental method was as follows: the small molecule compound to be tested (0.001-10 μM), the protein kinase to be tested were incubated with a buffer containing substrate, 10 mM magnesium acetate, and [γ-^33P-ATP], the reaction was started by adding Mg\TPmix, after incubation for a period of time at room temperature, a 3% phosphate solution was added to the buffer to stop the reaction. Subsequently, 10 μL of the reaction mixture was quantitatively pipetted onto P30 filter paper, which was washed three times with 75 mM phosphate solution and then once with methanol. The P30 filter paper was air-dried and scintillation fluid was added for scintillation counting.
# PKCη(h) = PKCη(h) (Homo sapiens (Human), UniProt P24723); assay: Kinase Profiler 10 μM panel
# Description: as §1
# [1] = target: PI3 Kinase (p110b/p85a)(h) (Homo sapiens (Human), UniProt P42338); assay: Kinase Profiler 10 μM panel
# Description: as §1
# Pim-1(h) = Pim-1(h) (Homo sapiens (Human), UniProt P11309); assay: Kinase Profiler 10 μM panel
# Description: as §1
# ACTR2(h) = ACTR2(h) (Homo sapiens (Human), UniProt P27037); assay: Kinase Profiler 10 μM panel
# Description: as §1
# PKG1α(h) = PKG1α(h) (Homo sapiens (Human), UniProt Q13976); assay: Kinase Profiler 10 μM panel
# Description: as §1
# JAK3(h) = JAK3(h) (Homo sapiens (Human), UniProt P52333); assay: Kinase Profiler 10 μM panel
# Description: as §1
# LKB1(h) = LKB1(h) (Homo sapiens (Human), UniProt Q15831); assay: Kinase Profiler 10 μM panel
# Description: as §1
# ULK1(h) = ULK1(h) (Homo sapiens (Human), UniProt O75385); assay: Kinase Profiler 10 μM panel
# Description: as §1
# MYO3B(h) = MYO3B(h) (Homo sapiens (Human), UniProt Q8WXR4); assay: Kinase Profiler 10 μM panel
# Description: as §1
# [2] = tested on: 422 kinases (including mutants); assay: Kinase selectivity profile over the Eurofins panel; assay type: biochemical; details: 10 μM, Tables 3 and 4, FIGS. 1 and 2
# Text: The selectivity profiles for Compounds 34 and 94 were plotted according to the data in Table 3 and Table 4. Wherein the red circular spot indicated the kinase were inhibited obviously, and the larger the radius of the red spot, the higher the inhibition against the kinase, and vice versa.
# EphB3(h) = EphB3(h) (Homo sapiens (Human), UniProt P54753); assay: Kinase Profiler 10 μM panel
# Description: as §1
# CDK2/cyclinA(h) = CDK2/cyclinA(h) (Homo sapiens (Human), UniProt P24941); assay: Kinase Profiler 10 μM panel
# Description: as §1
# HIPK1(h) = HIPK1(h) (Homo sapiens (Human), UniProt Q86Z02); assay: Kinase Profiler 10 μM panel
# Description: as §1
# STK33(h) = STK33(h) (Homo sapiens (Human), UniProt Q9BYT3); assay: Kinase Profiler 10 μM panel
# Description: as §1
# Flt4(h) = Flt4(h) (Homo sapiens (Human), UniProt P35916); assay: Kinase Profiler 10 μM panel
# Description: as §1
# MLK2(h) = MLK2(h) (Homo sapiens (Human), UniProt Q02779); assay: Kinase Profiler 10 μM panel
# Description: The experimental method was as follows: the small molecule compound to be tested (0.001-10 μM), the protein kinase to be tested were incubated with a buffer containing substrate, 10 mM magnesium acetate, and [γ-^33P-ATP], the reaction was started by adding Mg\TPmix, after incubation for a period of time at room temperature, a 3% phosphate solution was added to the buffer to stop the reaction. Subsequently, 10 μL of the reaction mixture was quantitatively pipetted onto P30 filter paper, which was washed three times with 75 mM phosphate solution and then once with methanol. The P30 filter paper was air-dried and scintillation fluid was added for scintillation counting.
# CK2(h) = CK2(h) (Homo sapiens (Human), UniProt P68400); assay: Kinase Profiler 10 μM panel
# Description: as §1
# [3] = target: PI3 Kinase (p110a(E545K)/p85a)(h) (Homo sapiens (Human), UniProt P42336, E545K); assay: Kinase Profiler 10 μM panel
# Description: as §1
# EphB1(h) = EphB1(h) (Homo sapiens (Human), UniProt P54762); assay: Kinase Profiler 10 μM panel
# Description: as §1
# GRK1(h) = GRK1(h) (Homo sapiens (Human), UniProt Q15835); assay: Kinase Profiler 10 μM panel
# Description: as §1
# BRK(h) = BRK(h) (Homo sapiens (Human), UniProt Q13882); assay: Kinase Profiler 10 μM panel
# Description: as §1
# RIPK1 = RIPK1 (Homo sapiens (Human), UniProt Q13546); assay: In vitro kinase assay (Eurofins Kinase Profiler), IC50; assay type: biochemical; details: 0.001-10 μM, read-out: RIPK 1 (IC50)
# PRK2(h) = PRK2(h) (Homo sapiens (Human), UniProt Q16513); assay: Kinase Profiler 10 μM panel
# Description: as §1
# CDK18/cyclinY(h) = CDK18/cyclinY(h) (Homo sapiens (Human), UniProt Q07002); assay: Kinase Profiler 10 μM panel
# Description: as §1
# MRCKγ(h) = MRCKγ(h) (Homo sapiens (Human), UniProt Q6DT37); assay: Kinase Profiler 10 μM panel
# Description: as §1
# Met(Y1248C)(h) = Met(Y1248C)(h) (Homo sapiens (Human), UniProt P08581, Y1230C); assay: Kinase Profiler 10 μM panel
# Description: as §1
# CDK7/cyclinH/MAT1(h) = CDK7/cyclinH/MAT1(h) (Homo sapiens (Human), UniProt P50613); assay: Kinase Profiler 10 μM panel
# Description: as §1
# SLK(h) = SLK(h) (Homo sapiens (Human), UniProt Q9H2G2); assay: Kinase Profiler 10 μM panel
# Description: as §1
# EphA1(h) = EphA1(h) (Homo sapiens (Human), UniProt P21709); assay: Kinase Profiler 10 μM panel
# Description: as §1
# RIPK2(h) = RIPK2(h) (Homo sapiens (Human), UniProt O43353); assay: Kinase Profiler 10 μM panel
# Description: as §1
# PKCζ(h) = PKCζ(h) (Homo sapiens (Human), UniProt Q05513); assay: Kinase Profiler 10 μM panel
# Description: as §1
# IGF-1R(h) = IGF-1R(h) (Homo sapiens (Human), UniProt P08069); assay: Kinase Profiler 10 μM panel
# Description: as §1
# Chain of HIPK1(h) (Q86Z02 whole entry): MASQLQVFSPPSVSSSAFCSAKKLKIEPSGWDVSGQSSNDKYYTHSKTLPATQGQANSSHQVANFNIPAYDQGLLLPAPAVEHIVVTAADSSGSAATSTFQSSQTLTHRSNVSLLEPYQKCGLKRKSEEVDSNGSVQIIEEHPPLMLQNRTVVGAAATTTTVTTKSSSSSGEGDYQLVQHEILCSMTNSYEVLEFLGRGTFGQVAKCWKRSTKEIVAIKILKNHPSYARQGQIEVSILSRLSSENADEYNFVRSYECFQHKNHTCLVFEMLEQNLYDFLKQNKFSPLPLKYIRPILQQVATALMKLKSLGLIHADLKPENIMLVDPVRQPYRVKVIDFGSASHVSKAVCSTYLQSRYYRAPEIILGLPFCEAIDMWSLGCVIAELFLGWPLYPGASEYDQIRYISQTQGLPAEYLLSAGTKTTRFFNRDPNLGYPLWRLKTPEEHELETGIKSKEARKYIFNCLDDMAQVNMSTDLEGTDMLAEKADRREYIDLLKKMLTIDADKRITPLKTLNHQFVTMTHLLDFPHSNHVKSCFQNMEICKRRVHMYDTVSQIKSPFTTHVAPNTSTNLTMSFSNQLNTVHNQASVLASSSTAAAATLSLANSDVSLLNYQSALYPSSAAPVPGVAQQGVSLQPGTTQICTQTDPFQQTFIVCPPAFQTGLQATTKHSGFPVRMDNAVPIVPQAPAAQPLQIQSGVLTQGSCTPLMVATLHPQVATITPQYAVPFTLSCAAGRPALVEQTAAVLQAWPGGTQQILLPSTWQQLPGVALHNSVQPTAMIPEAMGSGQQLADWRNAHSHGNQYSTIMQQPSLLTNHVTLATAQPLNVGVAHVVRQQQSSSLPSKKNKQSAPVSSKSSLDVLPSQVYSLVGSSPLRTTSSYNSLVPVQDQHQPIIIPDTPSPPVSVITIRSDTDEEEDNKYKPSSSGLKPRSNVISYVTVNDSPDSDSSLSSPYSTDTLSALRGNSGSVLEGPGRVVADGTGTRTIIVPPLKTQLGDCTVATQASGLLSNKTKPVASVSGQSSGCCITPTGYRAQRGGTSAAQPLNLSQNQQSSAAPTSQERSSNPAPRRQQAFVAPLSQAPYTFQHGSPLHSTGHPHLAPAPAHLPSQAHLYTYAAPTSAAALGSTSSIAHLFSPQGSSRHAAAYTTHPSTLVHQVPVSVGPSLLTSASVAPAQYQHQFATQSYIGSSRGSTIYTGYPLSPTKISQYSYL
# Chain of PI3 Kinase (p110a(E545K)/p85a)(h) (P42336 whole entry E545K): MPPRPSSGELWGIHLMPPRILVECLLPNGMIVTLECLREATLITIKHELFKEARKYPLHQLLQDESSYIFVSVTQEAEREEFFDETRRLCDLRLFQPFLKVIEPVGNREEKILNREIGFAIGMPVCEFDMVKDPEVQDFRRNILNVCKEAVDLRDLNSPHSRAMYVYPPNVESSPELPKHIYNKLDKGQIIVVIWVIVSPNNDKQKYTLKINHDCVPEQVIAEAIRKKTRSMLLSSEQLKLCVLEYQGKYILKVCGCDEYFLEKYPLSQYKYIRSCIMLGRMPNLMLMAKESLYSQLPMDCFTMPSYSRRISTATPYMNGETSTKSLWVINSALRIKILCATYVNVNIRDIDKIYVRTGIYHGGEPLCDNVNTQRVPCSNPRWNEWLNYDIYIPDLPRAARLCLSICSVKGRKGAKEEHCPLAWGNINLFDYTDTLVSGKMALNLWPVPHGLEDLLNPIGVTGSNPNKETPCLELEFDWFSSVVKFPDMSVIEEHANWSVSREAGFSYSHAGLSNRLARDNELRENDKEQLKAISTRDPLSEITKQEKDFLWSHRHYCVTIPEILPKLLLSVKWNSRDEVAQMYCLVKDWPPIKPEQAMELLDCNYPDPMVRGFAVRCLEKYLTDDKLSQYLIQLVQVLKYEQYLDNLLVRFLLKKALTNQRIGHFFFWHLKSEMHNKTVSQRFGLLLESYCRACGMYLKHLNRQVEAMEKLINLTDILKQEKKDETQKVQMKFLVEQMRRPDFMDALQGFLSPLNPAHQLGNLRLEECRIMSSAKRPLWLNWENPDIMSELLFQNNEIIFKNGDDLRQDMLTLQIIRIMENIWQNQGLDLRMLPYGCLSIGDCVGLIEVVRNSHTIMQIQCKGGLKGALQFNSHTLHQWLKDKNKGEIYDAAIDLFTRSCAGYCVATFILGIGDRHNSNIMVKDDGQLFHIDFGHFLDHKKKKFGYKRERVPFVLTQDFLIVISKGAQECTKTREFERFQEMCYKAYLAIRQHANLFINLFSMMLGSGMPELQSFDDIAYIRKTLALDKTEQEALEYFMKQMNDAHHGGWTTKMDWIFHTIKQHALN
# Chain of PI3 Kinase (p110a(E545K)/p85a)(h) (P27986 whole entry partner): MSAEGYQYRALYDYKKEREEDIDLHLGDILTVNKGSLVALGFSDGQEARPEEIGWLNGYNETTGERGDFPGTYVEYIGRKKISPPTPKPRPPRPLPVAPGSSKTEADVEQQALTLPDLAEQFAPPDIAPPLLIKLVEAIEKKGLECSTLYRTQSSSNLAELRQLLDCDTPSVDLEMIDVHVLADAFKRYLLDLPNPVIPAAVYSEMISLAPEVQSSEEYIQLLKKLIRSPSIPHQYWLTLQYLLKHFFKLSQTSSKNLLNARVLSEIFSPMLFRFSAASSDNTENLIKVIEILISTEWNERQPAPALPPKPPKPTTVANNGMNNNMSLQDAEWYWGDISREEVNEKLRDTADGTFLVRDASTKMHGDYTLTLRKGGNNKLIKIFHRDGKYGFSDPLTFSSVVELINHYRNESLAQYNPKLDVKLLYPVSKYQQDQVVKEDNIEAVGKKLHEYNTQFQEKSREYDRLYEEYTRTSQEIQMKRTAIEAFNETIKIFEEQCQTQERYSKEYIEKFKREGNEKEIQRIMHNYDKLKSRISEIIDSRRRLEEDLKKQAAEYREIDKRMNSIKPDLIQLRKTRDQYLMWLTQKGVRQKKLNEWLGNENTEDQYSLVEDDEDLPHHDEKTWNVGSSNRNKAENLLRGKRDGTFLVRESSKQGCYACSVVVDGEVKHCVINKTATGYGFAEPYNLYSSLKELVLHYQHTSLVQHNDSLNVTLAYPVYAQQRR
# Chain of MLK2(h) (Q02779 whole entry): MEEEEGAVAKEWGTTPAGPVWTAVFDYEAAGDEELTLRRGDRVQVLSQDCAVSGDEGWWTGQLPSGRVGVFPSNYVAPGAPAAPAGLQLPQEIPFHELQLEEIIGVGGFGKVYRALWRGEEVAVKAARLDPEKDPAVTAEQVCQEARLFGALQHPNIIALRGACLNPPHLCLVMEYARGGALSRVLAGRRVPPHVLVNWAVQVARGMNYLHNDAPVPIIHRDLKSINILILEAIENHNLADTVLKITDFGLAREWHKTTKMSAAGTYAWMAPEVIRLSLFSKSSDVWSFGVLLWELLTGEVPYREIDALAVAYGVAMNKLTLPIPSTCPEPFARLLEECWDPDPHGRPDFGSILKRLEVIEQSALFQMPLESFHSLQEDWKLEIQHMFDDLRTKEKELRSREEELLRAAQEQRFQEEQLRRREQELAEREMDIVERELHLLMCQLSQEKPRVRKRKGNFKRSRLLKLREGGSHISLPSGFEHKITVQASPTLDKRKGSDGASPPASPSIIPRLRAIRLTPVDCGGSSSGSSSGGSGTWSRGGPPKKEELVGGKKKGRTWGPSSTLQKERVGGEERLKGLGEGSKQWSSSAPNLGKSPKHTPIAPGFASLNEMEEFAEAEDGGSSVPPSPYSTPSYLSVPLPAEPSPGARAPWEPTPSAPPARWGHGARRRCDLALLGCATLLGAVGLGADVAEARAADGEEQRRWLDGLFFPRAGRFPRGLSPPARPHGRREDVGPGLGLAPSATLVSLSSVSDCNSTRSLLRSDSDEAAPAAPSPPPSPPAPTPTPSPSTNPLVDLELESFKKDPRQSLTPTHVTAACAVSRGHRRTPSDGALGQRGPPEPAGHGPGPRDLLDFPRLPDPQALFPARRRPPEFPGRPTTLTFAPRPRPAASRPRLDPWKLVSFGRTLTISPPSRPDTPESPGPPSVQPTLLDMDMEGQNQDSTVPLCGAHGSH
# Chain of JAK3(h) (P52333 whole entry): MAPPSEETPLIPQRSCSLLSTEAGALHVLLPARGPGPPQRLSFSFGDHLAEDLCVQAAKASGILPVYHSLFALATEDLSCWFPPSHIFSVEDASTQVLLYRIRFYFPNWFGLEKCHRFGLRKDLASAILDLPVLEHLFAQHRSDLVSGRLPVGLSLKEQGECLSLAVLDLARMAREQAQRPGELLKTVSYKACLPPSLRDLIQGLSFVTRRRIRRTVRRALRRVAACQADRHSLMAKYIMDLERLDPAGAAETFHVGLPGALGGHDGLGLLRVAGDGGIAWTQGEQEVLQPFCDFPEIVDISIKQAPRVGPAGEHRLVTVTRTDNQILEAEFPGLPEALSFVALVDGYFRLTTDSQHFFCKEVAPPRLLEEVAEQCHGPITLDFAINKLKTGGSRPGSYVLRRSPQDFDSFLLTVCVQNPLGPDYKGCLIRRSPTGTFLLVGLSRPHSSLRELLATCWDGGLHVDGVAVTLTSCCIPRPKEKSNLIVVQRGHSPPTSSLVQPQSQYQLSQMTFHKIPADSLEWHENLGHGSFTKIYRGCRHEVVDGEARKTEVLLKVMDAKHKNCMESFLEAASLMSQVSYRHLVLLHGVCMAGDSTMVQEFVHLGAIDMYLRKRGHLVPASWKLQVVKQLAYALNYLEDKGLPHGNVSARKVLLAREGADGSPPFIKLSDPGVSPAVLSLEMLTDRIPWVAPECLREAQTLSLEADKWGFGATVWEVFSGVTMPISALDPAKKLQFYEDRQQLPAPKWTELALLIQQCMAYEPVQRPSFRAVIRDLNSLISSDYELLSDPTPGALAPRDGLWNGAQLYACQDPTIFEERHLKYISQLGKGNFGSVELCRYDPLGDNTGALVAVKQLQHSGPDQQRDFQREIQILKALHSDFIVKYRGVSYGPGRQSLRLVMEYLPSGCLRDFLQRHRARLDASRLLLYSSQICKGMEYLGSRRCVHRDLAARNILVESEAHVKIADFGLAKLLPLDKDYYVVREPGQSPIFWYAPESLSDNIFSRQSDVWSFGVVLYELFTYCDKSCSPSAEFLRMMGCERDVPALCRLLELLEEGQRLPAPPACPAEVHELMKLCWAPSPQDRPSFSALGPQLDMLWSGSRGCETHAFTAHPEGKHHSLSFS
structure (smiles),measurement,setting,value
"C[C@H](NC(=O)c1c[nH]c2ccc(-c3ccc4nc(NC(=O)C5CC5)sc4c3)cc12)c1cccc(F)c1 [Compound 34, (S)-5-(2-(cyclopropanecarboxamido)benzo[d]thiazol-6-yl)-N-(1-(3-fluorophenyl)ethyl)-1H-indole-3-carboxamide]",Inhibition ratio,PKD3(h),−5%
same,Inhibition ratio,PKCη(h),−3%
same,Inhibition ratio,[1],16%
same,Inhibition ratio,Pim-1(h),3%
same,Inhibition ratio,ACTR2(h),6%
same,Inhibition ratio,PKG1α(h),−12%
same,Inhibition ratio,JAK3(h),23%
same,Inhibition ratio,LKB1(h),6%
same,Inhibition ratio,ULK1(h),11%
same,Inhibition ratio,MYO3B(h),16%
same,Kinase selectivity,[2],good kinase selectivity
same,Inhibition ratio,EphB3(h),3%
same,Inhibition ratio,CDK2/cyclinA(h),11%
same,Inhibition ratio,HIPK1(h),68%
same,Inhibition ratio,STK33(h),4%
same,Inhibition ratio,Flt4(h),93%
same,Inhibition ratio,MLK2(h),99%
same,Inhibition ratio,CK2(h),−9%
same,Inhibition ratio,[3],32%
same,Inhibition ratio,EphB1(h),45%
same,Inhibition ratio,GRK1(h),−24%
same,Inhibition ratio,BRK(h),4%
same,IC50,RIPK1,0.01 to 0.1 µM
same,Inhibition ratio,PRK2(h),0%
same,Inhibition ratio,CDK18/cyclinY(h),7%
same,Inhibition ratio,MRCKγ(h),−1%
same,Inhibition ratio,Met(Y1248C)(h),99%
same,Inhibition ratio,CDK7/cyclinH/MAT1(h),3%
same,Inhibition ratio,SLK(h),50%
same,Inhibition ratio,EphA1(h),3%
same,Inhibition ratio,RIPK2(h),67%
same,Inhibition ratio,PKCζ(h),10%
same,Inhibition ratio,IGF-1R(h),28%
"C[C@H](NC(=O)c1cn(C)c2ccc(-c3ccn4nc(NC(=O)C5CC5)nc4c3)cc12)c1cccc(F)c1 [Compound 94, (S)-5-(2-(cyclopropanecarboxamido)-[1,2,4]triazolo[1,5-a]pyridin-7-yl)-N-(1-(3-fluorophenyl)ethyl)-1-methyl-1H-indole-3-carboxamide]",Inhibition ratio/%,PKD3(h),−13%
same,Inhibition ratio/%,PKCη(h),27%
same,Inhibition ratio/%,[1],−7%
same,Inhibition ratio/%,Pim-1(h),9%
same,Inhibition ratio/%,ACTR2(h),−3%
same,Inhibition ratio/%,PKG1α(h),12%
same,Inhibition ratio/%,JAK3(h),38%
same,Inhibition ratio/%,LKB1(h),55%
same,Inhibition ratio/%,ULK1(h),45%
same,Inhibition ratio/%,MYO3B(h),−18%
same,Kinase selectivity,[2],good kinase selectivity
same,Inhibition ratio/%,EphB3(h),26%
same,Inhibition ratio/%,CDK2/cyclinA(h),24%
same,Inhibition ratio/%,HIPK1(h),48%
same,Inhibition ratio/%,STK33(h),23%
same,Inhibition ratio/%,Flt4(h),34%
same,Inhibition ratio/%,MLK2(h),99%
same,Inhibition ratio/%,CK2(h),44%
same,Inhibition ratio/%,[3],33%
same,Inhibition ratio/%,EphB1(h),1%
same,Inhibition ratio/%,GRK1(h),52%
same,Inhibition ratio/%,BRK(h),47%
same,IC50,RIPK1,0.001 to 0.01 µM
same,Inhibition ratio/%,PRK2(h),−4%
same,Inhibition ratio/%,CDK18/cyclinY(h),74%
same,Inhibition ratio/%,MRCKγ(h),55%
same,Inhibition ratio/%,Met(Y1248C)(h),11%
same,Inhibition ratio/%,CDK7/cyclinH/MAT1(h),53%
same,Inhibition ratio/%,SLK(h),15%
same,Inhibition ratio/%,EphA1(h),−12%
same,Inhibition ratio/%,RIPK2(h),−7%
same,Inhibition ratio/%,PKCζ(h),−2%
same,Inhibition ratio/%,IGF-1R(h),−4%
